Laboratory results from patent US8541216B2 (priority 2009, dated 2013).

Tested on: beet armyworm eggs
Assay: beet armyworm egg bioassay of separated, semipurified dunaimycins (96-well artificial diet)
Type: in vivo, beet armyworm (Spodoptera exigua)
Method: The separated, identified dunaimycins were then tested for bioactivity against beet armyworm eggs as follows. Stock solutions were provided as 15% aqueous ethanol solution of various semipurified dunaimycins, either alone or in combinations. For reference purposes, Javelin WDG (Bacillus thuringiensis subspecies Kurstaki; ThermoTrilogy Inc) was weighed out and diluted to give a 1,000 ppm stock solution (positive chemical standard). These stock solutions were transferred to a deep well microtitre plate: 1.4 ml of each stock solutions were placed in the 2 ml well across the top row (A wells 1-12). A Packard Multiprobe II liquid handling system (Perkin Elmer Inc.) then carried out a dilution program, first adding 700 μls of DI H2O to the remaining 84 wells (B-H 1-12). The four tip arm then performed a sequence of aspiration and dispensing steps to mix the samples and then transferred them into an adjoining well to give eight 50% serially diluted samples containing 700 μl per well. The robot then used a transfer program to pipette all of the serial diluted samples to labeled 96 well plates. Aliquots containing 40 μl of each dilution were dispensed into six wells across a microtitre plate containing ˜200 μl of artificial diet/well. […] Mortality was recorded as the number dead over the number treated and expressed as control corrected percent mortality. […]

With `CCC(O)CC1OC2(CCC1C)CC1OC(=O)/C=C\C(C)C(O)C(C)C(O)CC(O)C(C)CCCCC/C=C/C(CC(C)C)C(=O)CC(O2)C1C` (centres unmarked) [Dunaimycin A1] the “LD50 (ppm) BAW assay” value (Tested alone) was “Inactive up to 1000 ppm” and the “insecticidal activity (active or inactive dunaimycin)” value (classification of purified species, inactive up to about 1000 ppm) was “Inactive”.
